Experimental findings from patent publication US9745305B2, “Modulators of methyl modifying enzymes, compositions and uses thereof” (Constellation Pharmaceuticals, Inc., priority 2013, dated 2017) are described below.

Structures are written as SMILES. Bounds are passed on as bounds.

One experiment addresses EZH2 (Homo sapiens, UniProt Q15910). Briefly: EZH2 Assay (3H SAM methyl transfer, rPRC2, FlashPlate). Format: biochemical. The conditions noted are these: rPRC2, biotinylated oligonucleosomes, 0.2 μM 3H SAM, 2 nM EZH2. As for the experimental part: (§1) EZH2 Assay: Assays were carried out by mixing rPRC2 together with biotinylated oligonucleosome substrates in the presence of the radio-labeled enzyme co-factor, S-adenosyl-L-methionine (^3H SAM) (Perkin Elmer) and monitoring the enzymatically mediated transfer of tritiated methyl groups from ^3H SAM to histone lysine residues. The amount of resulting tritiated methyl histone product was measured by first capturing the biotinylated oligonucleosomes in streptavidin (SAV) coated FlashPlates (Perkin Elmer), followed by a wash step to remove unreacted ^3H SAM, and then counting on a TopCount NXT 384 well plate scintillation counter (Perkin Elmer). The final assay conditions for EZH2 were as follows: 50 mM Tris Buffer pH 8.5, 1 mM DTT, 69 μM Brij-35 detergent, 5.0 mM MgCl2, 0.1 mg/mL BSA, 0.2 μM ^3H SAM, 0.2 μM biotinylated oligonucleosomes, 3.6 μM H3K27me3 peptide and 2 nM EZH2.
(§2) Compound IC50 measurements were obtained as follows: Compounds were first dissolved in 100% DMSO as 10 mM stock solutions. Ten point dose response curves were generated by dispensing varying amounts of the 10 mM compound solution in 10 wells of the 384 well plate (Echo; Labcyte), pure DMSO was then used to backfill the wells to insure all wells have the same amount of DMSO. A 12.5 μL volume of the HMT enzyme, H3K27me3 peptide and oligonucleosome substrate in assay buffer was added to each well of the assay plate using a Multidrop Combi (ThermoFisher). Compounds were pre-incubated with the enzyme for 20 min, followed by initiation of the methyltransferase reaction by addition of 12.5 μL of ^3H SAM in assay buffer (final volume=25 μL). The final concentrations of compounds ranged from a top default concentration of 80 μM down to 0.16 μM in ten 2-fold dilution steps. Reactions were carried out for 60 minutes and quenched with 20 μL per well of 1.96 mM SAH, 50 mM Tris pH 8.5, 200 mM EDTA. Stopped reactions were transferred to SAV coated Flashplates (Perkin Elmer), incubated for 120 min, washed with a plate washer, and then read on the TopCount NXT (1.0 min/well) to measure the amount of methyl histone product formed during the reaction. The amount of methyl histone product was compared with the amount of product formed in the 0% and 100% inhibition control wells allowing the calculation of % Inhibition in the presence of the individual compounds at various concentrations. IC50's were computed using a 4 parameter fit non-linear curve fitting software package (XLFIT, part of the database package, ActivityBase (IDBS)) where the four parameters were IC50, Hill slope, pre-transitional baseline (0% INH), and post-transitional baseline (100% INH); with the latter two parameters being fixed to zero and 100%, respectively, by default.

In the next experiment the target is Y641N EZH2 (Homo sapiens, UniProt Q15910, Y641N). Nature of the experiment: Assay for Y641N EZH2 (as the EZH2 assay, H3K27Me2 oligonucleosomes as substrate). Format: biochemical. The following applies: Y641N EZH2 mutant, reconstituted H3K27Me2 oligonucleosomes as substrate. As for the experimental part: as §1, §2
Sequence of Y641N EZH2 (Q15910 whole entry Y641N): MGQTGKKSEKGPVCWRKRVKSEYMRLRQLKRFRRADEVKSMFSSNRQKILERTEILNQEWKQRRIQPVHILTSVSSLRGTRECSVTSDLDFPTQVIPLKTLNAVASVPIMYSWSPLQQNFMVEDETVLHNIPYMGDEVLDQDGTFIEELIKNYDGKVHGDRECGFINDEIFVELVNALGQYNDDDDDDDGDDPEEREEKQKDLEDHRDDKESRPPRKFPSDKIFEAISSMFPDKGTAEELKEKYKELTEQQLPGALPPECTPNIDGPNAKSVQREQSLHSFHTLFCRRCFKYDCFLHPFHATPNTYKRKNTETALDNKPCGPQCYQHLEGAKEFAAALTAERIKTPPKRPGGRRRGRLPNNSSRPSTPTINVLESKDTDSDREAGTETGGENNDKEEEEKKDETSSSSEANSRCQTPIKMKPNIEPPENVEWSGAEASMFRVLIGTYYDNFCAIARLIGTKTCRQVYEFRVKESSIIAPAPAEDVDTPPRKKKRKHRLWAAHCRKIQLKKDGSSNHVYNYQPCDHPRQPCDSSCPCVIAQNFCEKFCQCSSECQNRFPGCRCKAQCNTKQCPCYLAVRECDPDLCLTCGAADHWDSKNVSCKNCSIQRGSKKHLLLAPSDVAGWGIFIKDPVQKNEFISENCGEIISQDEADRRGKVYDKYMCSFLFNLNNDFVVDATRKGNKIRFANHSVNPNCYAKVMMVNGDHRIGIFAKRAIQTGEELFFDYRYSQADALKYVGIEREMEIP
Sequence of Y641N EZH2 (O75530 whole entry partner): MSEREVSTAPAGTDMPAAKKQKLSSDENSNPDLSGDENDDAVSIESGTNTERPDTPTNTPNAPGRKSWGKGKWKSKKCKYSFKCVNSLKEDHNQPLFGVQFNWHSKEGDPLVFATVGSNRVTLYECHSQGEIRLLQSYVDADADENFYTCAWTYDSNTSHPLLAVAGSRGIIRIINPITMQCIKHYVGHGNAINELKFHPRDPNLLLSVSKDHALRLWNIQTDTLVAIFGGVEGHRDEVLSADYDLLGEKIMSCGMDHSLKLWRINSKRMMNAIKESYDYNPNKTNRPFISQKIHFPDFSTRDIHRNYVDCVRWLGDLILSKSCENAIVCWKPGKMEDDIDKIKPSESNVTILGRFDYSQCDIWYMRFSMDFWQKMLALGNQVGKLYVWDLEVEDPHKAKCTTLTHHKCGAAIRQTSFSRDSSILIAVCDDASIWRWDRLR
Sequence of Y641N EZH2 (Q15022 whole entry partner): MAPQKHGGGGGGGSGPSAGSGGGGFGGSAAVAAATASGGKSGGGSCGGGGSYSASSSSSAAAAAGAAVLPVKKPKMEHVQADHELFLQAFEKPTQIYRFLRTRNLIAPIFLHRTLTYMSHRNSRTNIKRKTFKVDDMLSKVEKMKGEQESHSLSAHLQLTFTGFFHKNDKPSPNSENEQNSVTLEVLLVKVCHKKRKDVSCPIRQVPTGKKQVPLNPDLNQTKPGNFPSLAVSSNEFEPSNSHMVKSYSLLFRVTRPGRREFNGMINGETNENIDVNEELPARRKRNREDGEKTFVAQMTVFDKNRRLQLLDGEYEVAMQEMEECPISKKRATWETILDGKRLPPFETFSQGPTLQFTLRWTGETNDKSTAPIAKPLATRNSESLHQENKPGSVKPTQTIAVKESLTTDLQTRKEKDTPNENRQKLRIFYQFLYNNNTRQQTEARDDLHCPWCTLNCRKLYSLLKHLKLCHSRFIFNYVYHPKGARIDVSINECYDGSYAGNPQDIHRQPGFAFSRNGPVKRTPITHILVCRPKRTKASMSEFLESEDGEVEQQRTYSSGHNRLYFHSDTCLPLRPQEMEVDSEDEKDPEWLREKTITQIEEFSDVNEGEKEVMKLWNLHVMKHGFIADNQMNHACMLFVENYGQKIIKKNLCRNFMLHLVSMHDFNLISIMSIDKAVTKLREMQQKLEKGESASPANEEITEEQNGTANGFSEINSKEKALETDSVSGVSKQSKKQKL
Assay for Y641N EZH2 was performed as above using reconstituted H3K27Me2 oligonucleosomes as substrate.

Sequence of EZH2 (Q15910 whole entry): as the sequence (Q15910 whole entry Y641N) above, with N641Y counted along it
Sequence of EZH2 (O75530 whole entry partner): as the sequence (O75530 whole entry partner) above
Sequence of EZH2 (Q15022 whole entry partner): as the sequence (Q15022 whole entry partner) above

What is called IC50 is the concentration that inhibits the measured activity by half. A high value points to weaker potency. `COc1cc(C)[nH]c(=O)c1CNC(=O)c1c(C)c(C(C)c2cccn(C)c2=O)n2ncccc12` (racemic) [Compound 111, (±)-N-((4-methoxy-6-methyl-2-oxo-1,2-dihydropyridin-3-yl)methyl)-6-methyl-7-(1-(1-methyl-2-oxo-1,2-dihydropyridin-3-yl)ethyl)pyrrolo[1,2-b]pyridazine-5-carboxamide]: at EZH2, the “EZH2 IC50” value is recorded as “*(0.25 μM)”. Moreover, the IC50 at Y641N EZH2 was in the range of 1000 to 10000 nM.
As for `Cc1cc(C)c(CNC(=O)c2c(C)c(C(C)C3CCN(C)CC3)n3ncccc23)c(=O)[nH]1` (racemic) [Compound 124, (±)-N-((4,6-dimethyl-2-oxo-1,2-dihydropyridin-3-yl)methyl)-6-methyl-7-(1-(1-methylpiperidin-4-yl)ethyl)pyrrolo[1,2-b]pyridazine-5-carboxamide], the half-inhibitory concentration (IC50) is under 100 nM on EZH2 and 100 to 1000 nM against Y641N EZH2.
`COc1cc(C)[nH]c(=O)c1CNC(=O)c1c(C)c(C(C)N(C)C(C)=O)n2ncccc12` (racemic) [Compound 104, (±)-N-((4-methoxy-6-methyl-2-oxo-1,2-dihydropyridin-3-yl)methyl)-6-methyl-7-(1-(N-methylacetamido)ethyl)pyrrolo[1,2-b]pyridazine-5-carboxamide]: the IC50 is under 100 nM against EZH2 and 100 to 1000 nM against Y641N EZH2.
As for `CCS(=O)(=O)N1CCC(C(C)c2c(C)c(C(=O)NCc3c(OC)cc(C)[nH]c3=O)n3ccncc23)CC1` (racemic) [Compound 117, (±)-8-(1-(1-(ethylsulfonyl)piperidin-4-yl)ethyl)-N-((4-methoxy-6-methyl-2-oxo-1,2-dihydropyridin-3-yl)methyl)-7-methylpyrrolo[1,2-a]pyrazine-6-carboxamide], the half-maximal inhibitory concentration (IC50) on EZH2 and at Y641N EZH2 was under 100 nM throughout.
On EZH2, `Cc1cc(C)c(CNC(=O)c2c(C)c(C(=O)N3CCN(S(C)(=O)=O)CC3)n3ncccc23)c(=O)[nH]1` [Compound 126, N-((4,6-dimethyl-2-oxo-1,2-dihydropyridin-3-yl)methyl)-6-methyl-7-(4-(methylsulfonyl)piperazine-1-carbonyl)pyrrolo[1,2-b]pyridazine-5-carboxamide] showed an IC50 of 1000 to 10000 nM.
For the compound `CCN(C)C(C)c1c(C)c(C(=O)NCc2c(OC)cc(C)[nH]c2=O)c2cccnn12` (centres unmarked) [Compound 131, 7-(1-(ethyl(methyl)amino)ethyl)-N-((4-methoxy-6-methyl-2-oxo-1,2-dihydropyridin-3-yl)methyl)-6-methylpyrrolo[1,2-b]pyridazine-5-carboxamide], the concentration for half-maximal inhibition (IC50) against EZH2 is 100 to 1000 nM.
Turning to `COc1cc(C)[nH]c(=O)c1CNC(=O)c1c(C)c(-c2ccnn2C)n2ncccc12` [Compound 109, N-((4-methoxy-6-methyl-2-oxo-1,2-dihydropyridin-3-yl)methyl)-6-methyl-7-(1-methyl-1H-pyrazol-5-yl)pyrrolo[1,2-b]pyridazine-5-carboxamide], the IC50 against EZH2 and against Y641N EZH2 was 100 to 1000 nM throughout.
Compound `CCCc1cc(C)[nH]c(=O)c1CNC(=O)c1c(C)c(-c2c(C)noc2C)n2ncccc12` [Compound 123, 7-(3,5-dimethylisoxazol-4-yl)-6-methyl-N-((6-methyl-2-oxo-4-propyl-1,2-dihydropyridin-3-yl)methyl)pyrrolo[1,2-b]pyridazine-5-carboxamide] gave a half-inhibitory concentration (IC50) on EZH2 of under 100 nM. In addition, the “Y641N EZH2 IC50” value at Y641N EZH2 is “*(0.5 μM)”.
Consider `COc1cc(C)[nH]c(=O)c1CNC(=O)c1c(C)c(-c2c(C)cnn2C)n2ncccc12` [Compound 120, 7-(1,4-dimethyl-1H-pyrazol-5-yl)-N-((4-methoxy-6-methyl-2-oxo-1,2-dihydropyridin-3-yl)methyl)-6-methylpyrrolo[1,2-b]pyridazine-5-carboxamide], for which the IC50 on EZH2 and on Y641N EZH2 was 100 to 1000 nM each time.
As to `Cc1cc(C)c(CNC(=O)c2c(C)c(-c3c(C)noc3C)n3ncccc23)c(=O)[nH]1` [Compound 118, N-((4,6-dimethyl-2-oxo-1,2-dihydropyridin-3-yl)methyl)-7-(3,5-dimethylisoxazol-4-yl)-6-methylpyrrolo[1,2-b]pyridazine-5-carboxamide], the IC50 against EZH2 and against Y641N EZH2 was under 100 nM in each case.
As for `COc1cc(C)[nH]c(=O)c1CNC(=O)c1c(C)c(C(C)=O)n2ncccc12` [Compound 100, 7-acetyl-N-((4-methoxy-6-methyl-2-oxo-1,2-dihydropyridin-3-yl)methyl)-6-methylpyrrolo[1,2-b]pyridazine-5-carboxamide], the IC50 on EZH2 is 1000 to 10000 nM; at Y641N EZH2, over 10000 nM.
Taken in the same sequence, the figures for `CCS(=O)(=O)N1CCC(C(C)c2c(C)c(C(=O)NCc3c(OC)cc(C)[nH]c3=O)c3cnccn23)CC1` (racemic) [Compound 119, (±)-6-(1-(1-(ethylsulfonyl)piperidin-4-yl)ethyl)-N-((4-methoxy-6-methyl-2-oxo-1,2-dihydropyridin-3-yl)methyl)-7-methylpyrrolo[1,2-a]pyrazine-8-carboxamide] were under 100 nM and under 100 nM.
On to `Cc1cc(C)c(CNC(=O)c2c(C)c(C(=O)N3CCOCC3)n3ncccc23)c(=O)[nH]1` [Compound 125, N-((4,6-dimethyl-2-oxo-1,2-dihydropyridin-3-yl)methyl)-6-methyl-7-(morpholine-4-carbonyl)pyrrolo[1,2-b]pyridazine-5-carboxamide], for which the IC50 on EZH2 is 100 to 1000 nM.
